Source: publication PMC3597730, “Novel Phenolic Inhibitors of Small/Intermediate-Conductance Ca^2+-Activated K^+ Channels, KCa3.1 and KCa2.3” (PLoS ONE, 2013)
Values joined by “and” are separate entries in the source; they are usually repeats but may differ in a detail not shown here. Equal values may be shown once. Each block holds one compound with its values, some of them ahead of it.

Key:
hKv1.2 = molecular target: T1, hKv1.2 (Homo sapiens, UniProt P16389); test: Whole-cell patch-clamp of cloned hKv1.2; assay type: cell-based
T1 construct: expressed in transfected cells; host or cells: B82 murine fibroblasts (Methods)

[1] = test system: mixed KCa3.1 and KCa2.3 currents in PCAEC; test: Whole-cell patch-clamp of KCa currents in porcine coronary artery endothelial cells; assay type: cell-based; settings: 50 µM, n = 1
3T3 fibroblasts = test: Cell proliferation assay (Janus B Green staining); assay type: cell-based, mouse; settings: 3T3 cells
Description: Cell proliferation was spectrophotometrically assessed as described previously with some modifications. Briefly, 3T3 fibroblasts (1500 cells/well) were seeded in 96-well plates (TPP. Switzerland), cultured in DMEM containing 10% FCS (Lonza, Switzerland) with 13b or vehicle (DMSO), and formalin-fixed at days 0,1,2 and 3. To exclude the possibility that DMSO as vehicle affected the cell viability per se, final DMSO concentrations were the same for each concentration of 13b and the controls. Fixed cells were stained for 5 minutes with 50 ul/well of 0.3% Janus B Green dye (Acros Organics, Belgium) at room temperature with constant stirring followed by a de-staining step with water. Dye was eluted with 200 ul/well of 0.5 M HCl of hydrochloric acid and top-read measurements of absorbance were performed in a microplate reader (Sinergy HT, Biotek, USA) at 595 nm.

hKCa2.3 = molecular target: T2, hKCa2.3 (Homo sapiens, UniProt Q9UGI6); test: Whole-cell patch-clamp of hKCa2.3 in COS7 cells; assay type: cell-based
T2 construct: expressed in transfected cells; host or cells: COS7

hERG = test system: T3, hERG; test: Whole-cell patch-clamp of hERG tail currents in HEK293 cells; assay type: cell-based, human; settings: human, HEK293 cells expressing hERG, pH 7.4; hERG; compound 10 µM; read-out: % of control at 10 µM
T3 construct: expressed in transfected cells; gift of Craig January, University of Wisconsin

hERG channels = test system: T4, hERG channels; test: as above; assay type: cell-based, human; settings: 13b 1 µM; caffeic acid, flufenamic acid 10 µM (Table S1)
T4 construct: expressed in transfected cells; gift of Craig January, University of Wisconsin

[2] = molecular target: T5, KCa3.1 channels in 3T3 fibroblasts (Mus musculus, UniProt O89109); test: Whole-cell patch-clamp of KCa3.1 currents in 3T3 fibroblasts; assay type: cell-based
T5 construct: KCa3.1 channels in 3T3 fibroblasts; endogenous in cells; host or cells: 3T3-L1 mouse embryonic fibroblasts

KCa1.1 = test system: T6, KCa1.1; test: Whole-cell patch-clamp of KCa1.1 in U251 glioblastoma cells; assay type: cell-based, human
T6 construct: KCa1.1 in human U251 glioblastoma cells; endogenous in cells; host or cells: U251 glioblastoma cells

[3] = test system: porcine coronary artery rings; test: Isometric myography: contractions to 60 mM K+
Description: (§1) Myography on porcine coronary artery rings was performed as described in detail previously, [30]. In brief, left anterior descending arteries or posterior descending arteries were cut into rings (3 mm long) and rings were mounted onto a isometric force transducer (Pioden UF1, Graham Bell House, Canterbury, UK). The organ bath contained a 5 ml Krebs buffer maintained at 37°C and gassed with 95% O2/5% CO2. The composition of the Krebs buffer was as follows (in mM): NaCl 120, NaHCO3 24.5, CaCl2 2.4, KCl 4.7, MgSO4 1.2, KH2PO4 1 and glucose 5.6, pH 7.4. Each ring was passively stretched to an initial tension of 1 gr (10 mN). Changes in force were monitored and recorded on a computer using a Mac Lab System/8e program (AD Instruments Inc, Milford, Ma, USA), and digitalized at a sample rate of 0.5 sec.
(§2) To measure specifically endothelium-derived hyperpolarization-mediated vasorelaxation (EDH), the NO-synthase blocker, Nω-nitro-L-arginine (L-NNA, 300 µM), and the cyclooxygenase blocker, indomethacin (10 µM), were added to the buffer. Preparations were washed three times and were allowed to equilibrate for 40 min. Within this period, the incubation medium was renewed every 20 min. […] Ten min later, bradykinin (1 µM) was added for another 10 min, followed by washout (over at least 10 min). This protocol was repeated (2nd stimulation). Thereafter, we performed a 3rd round of pre-contraction and vasorelaxation, but using the vasospasmic thromboxane analogue U46619 (0.2 µM) as vasocontracting agent. At the end of the experiments, rings were allowed to contract maximally in a KCl (60 mM) buffer for 10 min followed by addition of the compounds. Finally, sodium nitroprusside (10 µM) was added to achieve maximal endothelium-independent vasorelaxation. […]
(§3) For data analysis, we determined absolute increases in force to 5-HT, U46619, or 60 mM KCl. Bradykinin-induced relaxations were determined as % change of pre-contraction to either vasocontracting compound and relative to the fully relaxed state (in the absence of the vasocontracting agent).

[4] = test system: porcine coronary artery rings; test: Isometric myography: 5-HT-induced contractions; settings: for Δg, 1st stimulation / Δg, 2nd stimulation: 1 µM 5-HT
Description: as §1
(§4) To measure specifically endothelium-derived hyperpolarization-mediated vasorelaxation (EDH), the NO-synthase blocker, Nω-nitro-L-arginine (L-NNA, 300 µM), and the cyclooxygenase blocker, indomethacin (10 µM), were added to the buffer. Preparations were washed three times and were allowed to equilibrate for 40 min. Within this period, the incubation medium was renewed every 20 min. […] Ten min later, bradykinin (1 µM) was added for another 10 min, followed by washout (over at least 10 min). This protocol was repeated (2nd stimulation). Thereafter, we performed a 3rd round of pre-contraction and vasorelaxation, but using the vasospasmic thromboxane analogue U46619 (0.2 µM) as vasocontracting agent. At the end of the experiments, rings were allowed to contract maximally in a KCl (60 mM) buffer for 10 min followed by addition of the compounds. Finally, sodium nitroprusside (10 µM) was added to achieve maximal endothelium-independent vasorelaxation.
(§5) DMSO as the vehicle had no vasoactive effect per se on the tissue. Other compounds were dissolved in Milli-Q water.
as §3

[5] = test system: porcine coronary artery rings; test: Isometric myography: bradykinin-induced (EDH) relaxation; settings: for % relaxation, 5-HT-precontraction / % relaxation, U46619-precontraction: 1 µM bradykinin
Description: as §1, §4, §5, §3

[6] = test system: porcine coronary artery rings; test: Isometric myography: endothelium-independent relaxation to sodium nitroprusside; settings: pre-contracted by 60 mM K+
Description: as §1, §2, §3

[7] = test system: porcine coronary artery rings; test: Isometric myography: U46619-induced contractions; settings: 0.2 µM U46619
Description: as §1, §4, §5, §3

[8] = 13b 0.5 µM, SKA-31 1 µM, alone or combined
[9] = SKA-31 10 µM, alone or with 13b 0.5 µM

T2 sequence (Q9UGI6 whole entry): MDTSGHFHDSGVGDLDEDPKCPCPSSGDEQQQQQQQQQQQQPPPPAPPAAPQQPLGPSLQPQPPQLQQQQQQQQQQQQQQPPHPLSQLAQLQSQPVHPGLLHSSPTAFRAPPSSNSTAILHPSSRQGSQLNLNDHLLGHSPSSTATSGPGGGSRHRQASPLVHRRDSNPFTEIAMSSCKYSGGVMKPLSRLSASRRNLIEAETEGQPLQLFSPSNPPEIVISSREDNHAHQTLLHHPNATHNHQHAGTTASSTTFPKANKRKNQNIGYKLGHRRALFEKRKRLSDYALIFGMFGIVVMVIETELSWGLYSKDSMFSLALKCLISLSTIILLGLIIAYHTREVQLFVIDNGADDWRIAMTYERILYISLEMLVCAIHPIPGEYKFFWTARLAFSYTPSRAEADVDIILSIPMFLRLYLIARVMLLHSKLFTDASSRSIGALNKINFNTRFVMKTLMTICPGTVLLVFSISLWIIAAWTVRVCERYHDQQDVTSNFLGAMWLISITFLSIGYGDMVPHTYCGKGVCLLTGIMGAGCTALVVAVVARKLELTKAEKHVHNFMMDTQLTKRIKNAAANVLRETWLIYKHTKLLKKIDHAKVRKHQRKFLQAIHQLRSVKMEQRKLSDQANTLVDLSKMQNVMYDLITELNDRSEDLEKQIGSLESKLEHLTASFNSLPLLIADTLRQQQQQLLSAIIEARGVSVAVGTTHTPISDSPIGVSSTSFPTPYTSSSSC
T1 sequence (P16389 whole entry): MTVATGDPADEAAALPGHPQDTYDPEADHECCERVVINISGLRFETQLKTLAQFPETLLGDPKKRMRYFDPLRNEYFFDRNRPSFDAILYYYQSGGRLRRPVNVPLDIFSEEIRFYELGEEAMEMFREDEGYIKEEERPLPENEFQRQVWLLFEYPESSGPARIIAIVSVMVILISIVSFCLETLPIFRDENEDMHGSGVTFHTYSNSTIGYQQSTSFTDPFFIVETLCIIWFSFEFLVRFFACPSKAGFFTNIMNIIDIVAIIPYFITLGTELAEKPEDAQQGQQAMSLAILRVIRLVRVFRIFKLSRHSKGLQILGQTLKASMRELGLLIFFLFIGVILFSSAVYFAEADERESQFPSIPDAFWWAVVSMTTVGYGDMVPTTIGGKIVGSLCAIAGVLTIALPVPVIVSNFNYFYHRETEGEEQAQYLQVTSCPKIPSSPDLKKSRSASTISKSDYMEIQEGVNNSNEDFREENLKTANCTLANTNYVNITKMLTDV

hKv1.2 blocking effect (in words) (hKv1.2; flufenamic acid and caffeic acid 10 and 50 µM, 13c 1 µM): did not block | remaining activity at 10 µM (hKv1.2; hKv1.2, compound 10 µM, read-out: % of control at 10 µM): 100 ± 2% | remaining activity at 50 µM (hKv1.2; hKv1.2, compound 50 µM, read-out: % of control at 50 µM): 97 ± 1% | remaining activity at 10 µM (hKCa2.3; COS-7, read-out: % of control at 10 µM): 108 ± 7% | remaining activity at 50 µM (hKCa2.3; COS-7, read-out: % of control at 50 µM): 97 ± 1% | KCa2.3 blocking effect (in words) (hKCa2.3; micromolar concentrations): no blocking effects | remaining activity at 10 µM ([2]; read-out: KCa3.1 current blocked, % of control): 28 ± 10% | KCa3.1 blocking effect (in words) ([2]; whole-cell, 3T3 fibroblasts, concentrations up to 50 µM as in Table 1): Complete inhibition | EC50 ([2]; whole-cell, 3T3 fibroblasts, read-out: EC50 of KCa3.1 inhibition): 1300 nM and 1000 to 10000 nM
Compound: O=C(O)/C=C/c1ccc(O)c(O)c1 [Caffeic Acid, (E)-3-(3,4-dihydroxyphenyl)propenoic acid]
mixed KCa3.1/KCa2.3 current, % of control [1]: 6% | change of proliferation vs. vehicle-treated controls (3T3 fibroblasts; 25 µM): −27% | change of proliferation vs. vehicle-treated controls (3T3 fibroblasts; 50 µM): −56% | activity at 10 µM (hERG): 97 ± 6% | hERG effect (in words) (hERG channels): not blocked | KCa1.1 effect (in words) (KCa1.1; U251 glioblastoma cells, 13b 1 µM, caffeic acid 10 µM): no blocking or activating effects | % of control at 10 µM (KCa1.1; hKCa1.1, compound 10 µM): 103 ± 14%

Compound: Nc1nc2c(ccc3ccccc32)s1 [SKA-31, naphtho[1,2-d]thiazol-2-ylamine]
Δg, contraction to 60 mM K+ [3, 8]: 3.2 ± 0.5 g | Δg, contraction to 60 mM K+ [3, 9]: 2.5 ± 0.4 g | Δg, 1st stimulation [4, 8]: 0.4 ± 0.1 g | Δg, 2nd stimulation [4, 8]: 0.5 ± 0.1 g | Δg, 1st stimulation [4, 9]: 0.4 ± 0.1 g | Δg, 2nd stimulation [4, 9]: 0.23 ± 0.02 g | change of amplitude of 5-HT contraction vs. vehicle, 2nd stimulation [4, 9]: −44% | % relaxation, 5-HT-precontraction [5, 8]: 65±6% | % relaxation, U46619-precontraction [5, 8]: 5% and 5±1% | % relaxation, 5-HT-precontraction [5, 9]: 47±8% | % relaxation, U46619-precontraction [5, 9]: 10% and 10±2% | change of bradykinin relaxation vs. vehicle, 5-HT-precontracted rings [5, 8]: +110% | change of bradykinin relaxation vs. vehicle, 5-HT-precontracted rings [5, 9]: +52% | % relaxation to 10 µM SNP [6, 8]: 82±8% | % relaxation to 10 µM SNP [6, 9]: 80±5% | Δg [7, 8]: 1.9 ± 0.5 g | Δg [7, 9]: 1.7 ± 0.2 g
